From patent US9624217B2, “Dihydropyrrolopyridine inhibitors of ROR-gamma” (Vitae Pharmaceuticals, Inc., priority 2014, dated 2017)

Target: recombinant RORγ Ligand Binding Domain (LBD) (Homo sapiens (Human), UniProt P51449)
Assay: Radio-Ligand RORγ Binding Assay (Assay 1)
Settings: SPA competition with 25-hydroxy [26,27-3H]-cholesterol, cell-free; read-out: RORγ Binding Ki Range
Method: Radio-Ligand RORγ Binding Assay (Assay 1)
Compounds of the present invention were tested for ability to bind to RORγ in a cell-free competition assay with commercially available radio-ligand (RL), 25-hydroxy [26,27-^3H]-cholesterol (PerkinElmer, Cat. #NET674250UC), for a ligand binding site on a recombinant RORγ Ligand Binding Domain (LBD) protein expressed as a 6×His-Glutathione-S-Transferase (GST) fusion. […] The plate was shaken at 700 rpm for 20 min and incubated for 10 min at rt, after which 40 μL of poly-Lys YSi SPA beads (PerkinElmer, Cat. #RPNQ0010) were added to achieve 50 μg of the beads per well. The plate was incubated on an orbital shaker for 20 min and then for 10 min without agitation at rt. SPA signal for tritium beta radiation was registered on PerkinElmer Microbeta plate reader. […] The percent inhibition vs. concentration data were fit into a four-parameter model, and IC50 values were calculated from the fit as the concentrations corresponding to the inflection points on the dose-response curves.

Chain of recombinant RORγ Ligand Binding Domain (LBD) (P51449 269-508): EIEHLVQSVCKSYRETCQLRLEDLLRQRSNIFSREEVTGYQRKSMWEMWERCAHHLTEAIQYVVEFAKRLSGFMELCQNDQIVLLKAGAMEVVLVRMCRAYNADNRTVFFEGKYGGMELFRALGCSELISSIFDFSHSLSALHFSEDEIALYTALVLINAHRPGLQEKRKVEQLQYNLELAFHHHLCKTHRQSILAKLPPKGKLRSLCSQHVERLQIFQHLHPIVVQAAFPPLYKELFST

Row | Structure (SMILES) | Ki
1 | CC(C)[C@@H]1c2ncc(C(=O)NCc3ccc(S(C)(=O)=O)cc3)cc2CN1Cc1ccc(Cl)cc1 [Compound 18] | > 1000 nM
2 | CC(C)[C@@H]1c2ncc(C(=O)NCc3ccc(S(C)(=O)=O)cc3)cc2CN1Cc1ccc(C#N)cc1 [Compound 19] | > 1000 nM
3 | CC(C)[C@H]1c2ncc(C(=O)NCc3ccc(S(C)(=O)=O)cc3)cc2CN1Cc1ccc(Cl)cn1 [Compound 23] | 100 to 1000 nM
4 | CC(C)[C@H]1c2ncc(C(=O)NCc3ccc(S(C)(=O)=O)cc3)cc2CN1Cc1ccc(C(F)(F)F)cn1 [Compound 36] | 100 to 1000 nM
5 | CC(C)[C@@H]1c2ncc(C(=O)NCc3ccc(S(C)(=O)=O)cc3)cc2CN1Cc1ccc(C(F)(F)F)cn1 [Compound 37] | > 1000 nM
6 | CCS(=O)(=O)c1ccc(CNC(=O)c2cnc3c(c2)CN(C[C@H]2CC[C@H](C(=O)OC)CC2)[C@H]3C(C)C)cc1 [Compound 44] | < 100 nM
7 | CCS(=O)(=O)c1ccc(CNC(=O)c2cnc3c(c2)C(=O)N(C[C@H]2CC[C@H](C(F)(F)F)CC2)[C@H]3C(C)C)nc1 [Compound 47] | < 100 nM
8 | CC(C)[C@H]1c2ncc(C(=O)NCC3CCS(=O)(=O)CC3)cc2CN1Cc1ccc(C(F)(F)F)cc1 [Compound 61] | > 1000 nM
9 | CC(C)[C@H]1c2ncc(C(=O)NCCC3CCS(=O)(=O)CC3)cc2CN1Cc1ccc(C(F)(F)F)cc1 [Compound 62] | > 1000 nM
10 | COC(=O)c1ccc(CNC(=O)c2cnc3c(c2)CN(Cc2ccc(C(F)(F)F)cc2)[C@H]3C(C)C)cc1 [Compound 65, Methyl (S)-4-((7-isopropyl-6-(4-(trifluoromethyl)benzyl)-6,7-dihydro-5H-pyrrolo[3,4-b]pyridine-3-carboxamido)methyl)benzoate] | 100 to 1000 nM
11 | CC(C)[C@H]1c2ncc(C(=O)NCCC3CN(C(=O)OC(C)(C)C)C3)cc2CN1Cc1ccc(C(F)(F)F)cc1 [Compound 66] | > 1000 nM
12 | CC(C)[C@H]1c2ncc(C(=O)NCC3CN(C(=O)OC(C)(C)C)C3)cc2CN1Cc1ccc(C(F)(F)F)cc1 [Compound 68] | > 1000 nM
13 | CC(C)[C@H]1c2ncc(C(=O)NCc3cn4cccnc4n3)cc2CN1Cc1ccc(C(F)(F)F)cc1 [Compound 69] | > 1000 nM
14 | CC(C)[C@H]1c2ncc(C(=O)NCC(O)c3ccc(C(F)(F)F)cc3)cc2CN1Cc1ccc(C(F)(F)F)cc1 (stereo partly drawn) [Compound 70] | > 1000 nM
15 | CC(C)[C@H]1c2ncc(C(=O)N[C@@H](CCO)c3ccc(Cl)cc3)cc2CN1Cc1ccc(C(F)(F)F)cc1 [Compound 71] | 100 to 1000 nM
16 | CC(C)[C@H]1c2ncc(C(=O)NCC3CCN(C(=O)OC(C)(C)C)C3)cc2CN1Cc1ccc(C(F)(F)F)cc1 (stereo partly drawn) [Compound 74] | > 1000 nM
17 | COC(=O)[C@H]1CC[C@H](CNC(=O)c2cnc3c(c2)CN(Cc2ccc(C(F)(F)F)cc2)[C@H]3C(C)C)CC1 [Compound 75] | > 1000 nM
18 | CC(C)[C@H]1c2ncc(C(=O)NCCN3CCOCC3)cc2CN1Cc1ccc(C(F)(F)F)cc1 [Compound 77] | > 1000 nM
19 | CC(C)[C@H]1c2ncc(C(=O)NCc3ccccn3)cc2CN1Cc1ccc(C(F)(F)F)cc1 [Compound 78] | 100 to 1000 nM
20 | CC(C)[C@H]1c2ncc(C(=O)NCCCN3CCCC3=O)cc2CN1Cc1ccc(C(F)(F)F)cc1 [Compound 79] | > 1000 nM
21 | CC(C)[C@H]1c2ncc(C(=O)NCC3(c4ccc(Cl)cc4)CC3)cc2CN1Cc1ccc(C(F)(F)F)cc1 [Compound 80] | > 1000 nM

Row | Structure (SMILES) | Ki
22 | CC(C)[C@H]1c2ncc(C(=O)NCc3ccccc3CN3CCN(C)CC3)cc2CN1Cc1ccc(C(F)(F)F)cc1 [Compound 81] | > 1000 nM
23 | CC(C)[C@H]1c2ncc(C(=O)NCc3ccn(C)n3)cc2CN1Cc1ccc(C(F)(F)F)cc1 [Compound 82] | > 1000 nM
24 | CC(C)[C@H]1c2ncc(C(=O)NCc3ccnnc3)cc2CN1Cc1ccc(C(F)(F)F)cc1 [Compound 83] | 100 to 1000 nM
25 | CC(C)[C@H]1c2ncc(C(=O)NCc3cccnn3)cc2CN1Cc1ccc(C(F)(F)F)cc1 [Compound 84] | > 1000 nM
26 | CC(C)[C@H]1c2ncc(C(=O)NCC3COCCO3)cc2CN1Cc1ccc(C(F)(F)F)cc1 (stereo partly drawn) [Compound 85] | > 1000 nM
27 | CCS(=O)(=O)CCNC(=O)c1cnc2c(c1)CN(Cc1ccc(C(F)(F)F)cc1)[C@H]2C(C)C [Compound 86] | > 1000 nM
28 | CC(C)[C@H]1c2ncc(C(=O)NC3(CO)Cc4ccccc4C3)cc2CN1Cc1ccc(C(F)(F)F)cc1 [Compound 87] | > 1000 nM
29 | CC(C)[C@H]1c2ncc(C(=O)NCC(c3cccnc3)N3CCOCC3)cc2CN1Cc1ccc(C(F)(F)F)cc1 (stereo partly drawn) [Compound 88] | > 1000 nM
30 | CC(C)[C@H]1c2ncc(C(=O)NCCC3CCOCC3)cc2CN1Cc1ccc(C(F)(F)F)cc1 [Compound 90] | 100 to 1000 nM
31 | CC(C)[C@H]1c2ncc(C(=O)NCC(c3ccncc3)N(C)C)cc2CN1Cc1ccc(C(F)(F)F)cc1 (stereo partly drawn) [Compound 92] | > 1000 nM
32 | CC(C)[C@H]1c2ncc(C(=O)NCC(c3ccc(C(F)(F)F)cc3)N3CCOCC3)cc2CN1Cc1ccc(C(F)(F)F)cc1 (stereo partly drawn) [Compound 93] | > 1000 nM
33 | CC(C)[C@H]1c2ncc(C(=O)NCc3nnc4n3CCC4)cc2CN1Cc1ccc(C(F)(F)F)cc1 [Compound 94] | > 1000 nM
34 | CC(C)[C@H]1c2ncc(C(=O)NCCCn3ccnc3)cc2CN1Cc1ccc(C(F)(F)F)cc1 [Compound 96] | > 1000 nM
35 | CC(C)[C@H]1c2ncc(C(=O)NCCc3ccccn3)cc2CN1Cc1ccc(C(F)(F)F)cc1 [Compound 97] | > 1000 nM
36 | CC(C)[C@H]1c2ncc(C(=O)NCc3ccccc3OCCN(C)C)cc2CN1Cc1ccc(C(F)(F)F)cc1 [Compound 98] | > 1000 nM
37 | CC(C)[C@H]1c2ncc(C(=O)NCCN3CCN(C)CC3)cc2CN1Cc1ccc(C(F)(F)F)cc1 [Compound 99] | > 1000 nM
38 | CC(C)[C@H]1c2ncc(C(=O)NCC3CCN(C)CC3)cc2CN1Cc1ccc(C(F)(F)F)cc1 [Compound 100] | > 1000 nM
39 | CC(C)[C@H]1c2ncc(C(=O)NCCc3ccnc(O)c3)cc2CN1Cc1ccc(C(F)(F)F)cc1 [Compound 101] | > 1000 nM
40 | CCS(=O)(=O)N1CC(CCNC(=O)c2cnc3c(c2)CN(Cc2ccc(C(F)(F)F)cc2)[C@H]3C(C)C)C1 [Compound 102] | 100 to 1000 nM
41 | CCS(=O)(=O)N1CC(CNC(=O)c2cnc3c(c2)CN(Cc2ccc(C(F)(F)F)cc2)[C@H]3C(C)C)C1 [Compound 104] | 100 to 1000 nM
42 | COC(=O)N1CC(CNC(=O)c2cnc3c(c2)CN(Cc2ccc(C(F)(F)F)cc2)[C@H]3C(C)C)C1 [Compound 105] | > 1000 nM

Row | Structure (SMILES) | Ki
43 | CCS(=O)(=O)N1CCC(CNC(=O)c2cnc3c(c2)CN(Cc2ccc(C(F)(F)F)cc2)[C@H]3C(C)C)C1 (stereo partly drawn) [Compound 106] | 100 to 1000 nM
44 | COC(=O)N1CCC(CNC(=O)c2cnc3c(c2)CN(Cc2ccc(C(F)(F)F)cc2)[C@H]3C(C)C)C1 (stereo partly drawn) [Compound 107] | 100 to 1000 nM
45 | CNC(=O)[C@H]1CC[C@H](CNC(=O)c2cnc3c(c2)CN(Cc2ccc(C(F)(F)F)cc2)[C@H]3C(C)C)CC1 [Compound 108] | > 1000 nM
46 | COC(=O)N1CCC(CNC(=O)c2cnc3c(c2)CN(Cc2ccc(C(F)(F)F)cc2)[C@H]3C(C)C)CC1 [Compound 110] | > 1000 nM
47 | CC(O)C(=O)N1CCC(CNC(=O)c2cnc3c(c2)CN(Cc2ccc(C(F)(F)F)cc2)[C@H]3C(C)C)CC1 (stereo partly drawn) [Compound 112] | > 1000 nM
48 | CC(C)[C@H]1c2ncc(C(=O)NCC3CCN(C(=O)CO)CC3)cc2CN1Cc1ccc(C(F)(F)F)cc1 [Compound 113] | 100 to 1000 nM
49 | CC(=O)N1CCC(CNC(=O)c2cnc3c(c2)CN(Cc2ccc(C(F)(F)F)cc2)[C@H]3C(C)C)CC1 [Compound 114] | > 1000 nM
50 | CC(C)[C@H]1c2ncc(C(=O)NCc3ccncc3)cc2CN1Cc1ccc(C(F)(F)F)cc1 [Compound 115] | 100 to 1000 nM
51 | CC(C)[C@H]1c2ncc(C(=O)NCc3cccc(S(C)(=O)=O)c3)cc2CN1Cc1ccc(C(F)(F)F)cc1 [Compound 116] | 100 to 1000 nM
52 | CC(C)[C@H]1c2ncc(C(=O)NCC(F)(F)F)cc2CN1Cc1ccc(C(F)(F)F)cc1 [Compound 117] | > 1000 nM
53 | CC(C)[C@H]1c2ncc(C(=O)NCC3(O)CCC4(CC3)OCCO4)cc2CN1Cc1ccc(C(F)(F)F)cc1 [Compound 118] | > 1000 nM
54 | CC(C)[C@H]1c2ncc(C(=O)N[C@H](C)c3ccc(Br)cc3)cc2CN1Cc1ccc(C(F)(F)F)cc1 [Compound 119] | > 1000 nM
55 | CC(C)[C@H]1c2ncc(C(=O)NC3(c4cnccn4)CC3)cc2CN1Cc1ccc(C(F)(F)F)cc1 [Compound 120] | > 1000 nM
56 | CC(C)[C@H]1c2ncc(C(=O)NCCC3C(=O)Nc4ccc(Cl)cc43)cc2CN1Cc1ccc(C(F)(F)F)cc1 (stereo partly drawn) [Compound 121] | > 1000 nM
57 | CC(C)NC(=O)c1cnc2c(c1)CN(Cc1ccc(C(F)(F)F)cc1)[C@H]2C(C)C [Compound 122] | > 1000 nM
58 | CC(C)[C@H]1c2ncc(C(=O)NC(CO)c3ccc(Br)cc3)cc2CN1Cc1ccc(C(F)(F)F)cc1 (stereo partly drawn) [Compound 123] | 100 to 1000 nM
59 | CC(C)[C@H]1c2ncc(C(=O)NCC(F)F)cc2CN1Cc1ccc(C(F)(F)F)cc1 [Compound 124] | > 1000 nM
60 | CC(C)[C@H]1c2ncc(C(=O)N[C@H]3c4ccccc4C[C@H]3O)cc2CN1Cc1ccc(C(F)(F)F)cc1 [Compound 125] | > 1000 nM
61 | COC(=O)C(Cc1ccc(F)cc1)NC(=O)c1cnc2c(c1)CN(Cc1ccc(C(F)(F)F)cc1)[C@H]2C(C)C (stereo partly drawn) [Compound 126] | > 1000 nM
62 | CC(C)[C@H]1c2ncc(C(=O)NC[C@H]3CC[C@H](C#N)CC3)cc2CN1Cc1ccc(C(F)(F)F)cc1 [Compound 129] | 100 to 1000 nM
63 | CC(C)[C@H]1c2ncc(C(=O)N[C@H]3c4ccccc4C[C@H]3O)cc2CN1Cc1ccc(C(F)(F)F)cc1 [Compound 130] | > 1000 nM
